# Counter-ions that a name gives are not always drawn.
# Test system: Pressor reaction (norepinephirine)
# Assay: Pressor reaction inhibiting effect of prazosin hydrochloride-containing preparation (Test Example 2)
# Format: in vivo, male SD rats
# Conditions: oral, 20 mg/kg once daily, 3 days; 24 h after last dose; norepinephirine 3 μg/kg i.v.; control 48.6 ± 1.2; * significant difference from control (risk factor 5%)
# Description: (B) A suspension of prazosin hydrochloride in 1% gum arabic suspension was orally administered.
# The dosage for both treatment groups was 20 mg/kg once daily and the treatment was carried out for 3 consecutive days. Twenty-four hours after the last dosing, 3 μg/kg of norepinephirine was intravenously administered under pentobarbital sodium anesthesia (dosage 40 mg/kg; intraperitoneal) and the resulting pressor reaction was compared with that in the untreated control group.
smiles,measurement,value
COc1cc2nc(N3CCN(C(=O)c4ccco4)CC3)nc(N)c2cc1OC [prazosin hydrochloride],Pressor reaction,34.9 ± 2.2 mmHg
